± gives the expanded uncertainty stated by the source.
Details: Liquid; for mass density: Vibrating tube method; for speed of sound: Pulse-echo method

`CCCn1cc[n+](C)c1.O=S(=O)([N-]S(=O)(=O)C(F)(F)F)C(F)(F)F` gave a mass density (298.15 K, 100 kPa) of 1475.7 ± 2.5 kg/m3, a speed of sound (298.15 K, 500 kPa) of 1236.4 ± 3.1 m/s and a mass density (298.15 K, 1830 kPa) of 1476.98 ± 2.6 kg/m3. It also gave a speed of sound (298.15 K, 3500 kPa) of 1246.5 ± 3.1 m/s, a speed of sound (298.15 K, 7000 kPa) of 1258.2 ± 3.1 m/s and a speed of sound (298.15 K, 10000 kPa) of 1268 ± 3.1 m/s. The mass density (298.15 K, 10020 kPa) was 1483.13 ± 2.8 kg/m3, the speed of sound (298.15 K, 13500 kPa) was 1279.2 ± 3.1 m/s and the mass density (298.15 K, 14980 kPa) was 1486.69 ± 3 kg/m3. The speed of sound (298.15 K, 17000 kPa) was 1290 ± 3.1 m/s, the mass density (298.15 K, 19750 kPa) was 1490.06 ± 3.1 kg/m3 and the speed of sound (298.15 K, 20000 kPa) was 1299.2 ± 3.1 m/s. It also gave a mass density (298.15 K, 25860 kPa) of 1494.22 ± 3.2 kg/m3, a speed of sound (298.15 K, 30000 kPa) of 1329.2 ± 3.2 m/s and a mass density (298.15 K, 31480 kPa) of 1497.95 ± 3.4 kg/m3. For the same compound, the mass density (298.15 K, 37770 kPa) was 1502.01 ± 3.6 kg/m3, the speed of sound (298.15 K, 40000 kPa) was 1357.5 ± 3.2 m/s and the mass density (298.15 K, 44170 kPa) was 1506.01 ± 3.8 kg/m3. For the same compound, the speed of sound (298.15 K, 50000 kPa) was 1384.5 ± 3.2 m/s, the mass density (298.15 K, 50750 kPa) was 1509.97 ± 4 kg/m3 and the mass density (298.15 K, 59590 kPa) was 1515.1 ± 4.2 kg/m3. For the same compound, the speed of sound (298.15 K, 60000 kPa) was 1410.3 ± 3.2 m/s, the speed of sound (298.15 K, 70000 kPa) was 1435.1 ± 3.2 m/s and the speed of sound (298.15 K, 80000 kPa) was 1459 ± 3.2 m/s. The speed of sound (298.15 K, 90000 kPa) was 1482.1 ± 3.2 m/s, the speed of sound (298.15 K, 100000 kPa) was 1504.5 ± 3.2 m/s and the speed of sound (298.15 K, 112500 kPa) was 1531.7 ± 3.2 m/s. For the same compound, the speed of sound (298.15 K, 125000 kPa) was 1557.6 ± 3.2 m/s, the speed of sound (298.15 K, 137510 kPa) was 1582.8 ± 3.2 m/s and the speed of sound (298.15 K, 150000 kPa) was 1606 ± 3.2 m/s. It also gave a speed of sound (298.15 K, 162500 kPa) of 1629.6 ± 3.2 m/s, a speed of sound (298.15 K, 175000 kPa) of 1652.5 ± 3.2 m/s and a speed of sound (298.15 K, 187500 kPa) of 1674.5 ± 3.2 m/s. It also gave a speed of sound (298.15 K, 200000 kPa) of 1695.9 ± 3.2 m/s, a mass density (299.15 K, 100 kPa) of 1474.62 ± 2.5 kg/m3 and a mass density (299.15 K, 1830 kPa) of 1475.87 ± 2.6 kg/m3. It also gave a mass density (299.15 K, 10020 kPa) of 1482.12 ± 2.8 kg/m3, a mass density (299.15 K, 14980 kPa) of 1485.68 ± 3 kg/m3 and a mass density (299.15 K, 19750 kPa) of 1489.01 ± 3.1 kg/m3. The mass density (299.15 K, 25860 kPa) was 1493.18 ± 3.2 kg/m3, the mass density (299.15 K, 31480 kPa) was 1496.89 ± 3.4 kg/m3 and the mass density (299.15 K, 37770 kPa) was 1500.95 ± 3.6 kg/m3. It also gave a mass density (299.15 K, 44170 kPa) of 1504.95 ± 3.8 kg/m3, a mass density (299.15 K, 50750 kPa) of 1509.07 ± 4 kg/m3 and a mass density (299.15 K, 59590 kPa) of 1514.22 ± 4.2 kg/m3. For the same compound, the mass density (300.15 K, 100 kPa) was 1473.66 ± 2.5 kg/m3, the mass density (300.15 K, 1830 kPa) was 1474.94 ± 2.6 kg/m3 and the mass density (300.15 K, 10020 kPa) was 1481.1 ± 2.8 kg/m3. The mass density (300.15 K, 14980 kPa) was 1484.68 ± 2.9 kg/m3, the mass density (300.15 K, 19750 kPa) was 1488.07 ± 3.1 kg/m3 and the mass density (300.15 K, 25860 kPa) was 1492.27 ± 3.2 kg/m3. For the same compound, the mass density (300.15 K, 31480 kPa) was 1496.03 ± 3.4 kg/m3, the mass density (300.15 K, 37770 kPa) was 1500.11 ± 3.6 kg/m3 and the mass density (300.15 K, 44170 kPa) was 1504.13 ± 3.8 kg/m3. The mass density (300.15 K, 50750 kPa) was 1508.14 ± 4 kg/m3, the mass density (300.15 K, 59590 kPa) was 1513.35 ± 4.2 kg/m3 and the mass density (301.15 K, 100 kPa) was 1472.79 ± 2.5 kg/m3. It also gave a mass density (301.15 K, 1830 kPa) of 1474.07 ± 2.6 kg/m3, a mass density (301.15 K, 10020 kPa) of 1480.19 ± 2.8 kg/m3 and a mass density (301.15 K, 14980 kPa) of 1483.74 ± 2.9 kg/m3. For the same compound, the mass density (301.15 K, 19750 kPa) was 1487.1 ± 3.1 kg/m3, the mass density (301.15 K, 25860 kPa) was 1491.35 ± 3.2 kg/m3 and the mass density (301.15 K, 31480 kPa) was 1495.08 ± 3.4 kg/m3. For the same compound, the mass density (301.15 K, 37770 kPa) was 1499.16 ± 3.6 kg/m3, the mass density (301.15 K, 44170 kPa) was 1503.18 ± 3.8 kg/m3 and the mass density (301.15 K, 50750 kPa) was 1507.27 ± 4 kg/m3. For the same compound, the mass density (301.15 K, 59590 kPa) was 1512.51 ± 4.2 kg/m3, the mass density (302.15 K, 100 kPa) was 1471.92 ± 2.5 kg/m3 and the mass density (302.15 K, 1830 kPa) was 1473.15 ± 2.6 kg/m3. The mass density (302.15 K, 10020 kPa) was 1479.27 ± 2.8 kg/m3, the mass density (302.15 K, 14980 kPa) was 1482.84 ± 2.9 kg/m3 and the mass density (302.15 K, 19750 kPa) was 1486.21 ± 3.1 kg/m3. It also gave a mass density (302.15 K, 25860 kPa) of 1490.42 ± 3.2 kg/m3, a mass density (302.15 K, 31480 kPa) of 1494.19 ± 3.4 kg/m3 and a mass density (302.15 K, 37770 kPa) of 1498.29 ± 3.6 kg/m3. It also gave a mass density (302.15 K, 44170 kPa) of 1502.37 ± 3.8 kg/m3, a mass density (302.15 K, 50750 kPa) of 1506.46 ± 3.9 kg/m3 and a mass density (302.15 K, 59590 kPa) of 1511.74 ± 4.2 kg/m3. It also gave a mass density (303.15 K, 100 kPa) of 1471.14 ± 2.5 kg/m3, a mass density (303.15 K, 1830 kPa) of 1472.39 ± 2.6 kg/m3 and a mass density (303.15 K, 10020 kPa) of 1478.49 ± 2.8 kg/m3. For the same compound, the mass density (303.15 K, 14980 kPa) was 1482 ± 2.9 kg/m3, the mass density (303.15 K, 19750 kPa) was 1485.41 ± 3.1 kg/m3 and the mass density (303.15 K, 25860 kPa) was 1489.57 ± 3.2 kg/m3. It also gave a mass density (303.15 K, 31480 kPa) of 1493.32 ± 3.4 kg/m3, a mass density (303.15 K, 37770 kPa) of 1497.43 ± 3.6 kg/m3 and a mass density (303.15 K, 44170 kPa) of 1501.5 ± 3.8 kg/m3. It also gave a mass density (303.15 K, 50750 kPa) of 1505.6 ± 3.9 kg/m3, a mass density (303.15 K, 59590 kPa) of 1510.93 ± 4.2 kg/m3 and a mass density (308.15 K, 100 kPa) of 1466.83 ± 2.5 kg/m3. The speed of sound (308.15 K, 500 kPa) was 1214 ± 3.1 m/s, the mass density (308.15 K, 1830 kPa) was 1468.1 ± 2.6 kg/m3 and the speed of sound (308.15 K, 3500 kPa) was 1224.4 ± 3.1 m/s. For the same compound, the speed of sound (308.15 K, 7000 kPa) was 1236.2 ± 3.1 m/s, the speed of sound (308.15 K, 10000 kPa) was 1246.2 ± 3.1 m/s and the mass density (308.15 K, 10020 kPa) was 1474.12 ± 2.8 kg/m3. For the same compound, the speed of sound (308.15 K, 13500 kPa) was 1257.6 ± 3.1 m/s, the mass density (308.15 K, 14980 kPa) was 1477.65 ± 2.9 kg/m3 and the speed of sound (308.15 K, 17000 kPa) was 1268.6 ± 3.1 m/s. It also gave a mass density (308.15 K, 19750 kPa) of 1480.89 ± 3 kg/m3, a speed of sound (308.15 K, 20000 kPa) of 1278 ± 3.1 m/s and a mass density (308.15 K, 25860 kPa) of 1485.18 ± 3.2 kg/m3. It also gave a speed of sound (308.15 K, 30000 kPa) of 1308.6 ± 3.2 m/s, a mass density (308.15 K, 31480 kPa) of 1489 ± 3.4 kg/m3 and a mass density (308.15 K, 37770 kPa) of 1493.05 ± 3.5 kg/m3. For the same compound, the speed of sound (308.15 K, 40000 kPa) was 1337.1 ± 3.2 m/s, the mass density (308.15 K, 44170 kPa) was 1497.15 ± 3.7 kg/m3 and the speed of sound (308.15 K, 50000 kPa) was 1364.7 ± 3.2 m/s. For the same compound, the mass density (308.15 K, 50750 kPa) was 1501.36 ± 3.9 kg/m3, the mass density (308.15 K, 59590 kPa) was 1506.81 ± 4.2 kg/m3 and the speed of sound (308.15 K, 60000 kPa) was 1391 ± 3.2 m/s. For the same compound, the speed of sound (308.15 K, 70000 kPa) was 1416.2 ± 3.2 m/s, the speed of sound (308.15 K, 80000 kPa) was 1440.3 ± 3.2 m/s and the speed of sound (308.15 K, 90000 kPa) was 1463.7 ± 3.2 m/s. It also gave a speed of sound (308.15 K, 100000 kPa) of 1486.4 ± 3.2 m/s, a speed of sound (308.15 K, 112500 kPa) of 1513.6 ± 3.2 m/s and a speed of sound (308.15 K, 125000 kPa) of 1539.9 ± 3.2 m/s. It also gave a speed of sound (308.15 K, 137510 kPa) of 1565.2 ± 3.2 m/s, a speed of sound (308.15 K, 150000 kPa) of 1589.6 ± 3.2 m/s and a speed of sound (308.15 K, 162500 kPa) of 1613.3 ± 3.2 m/s. It also gave a speed of sound (308.15 K, 175000 kPa) of 1636.3 ± 3.2 m/s, a speed of sound (308.15 K, 187500 kPa) of 1658.6 ± 3.2 m/s and a speed of sound (308.15 K, 200000 kPa) of 1680.4 ± 3.2 m/s. The mass density (313.15 K, 100 kPa) was 1462.07 ± 2.5 kg/m3, the mass density (313.15 K, 1830 kPa) was 1463.28 ± 2.5 kg/m3 and the mass density (313.15 K, 10020 kPa) was 1469.31 ± 2.8 kg/m3. For the same compound, the mass density (313.15 K, 14980 kPa) was 1472.86 ± 2.9 kg/m3, the mass density (313.15 K, 19750 kPa) was 1476.15 ± 3 kg/m3 and the mass density (313.15 K, 25860 kPa) was 1480.43 ± 3.2 kg/m3. It also gave a mass density (313.15 K, 31480 kPa) of 1484.36 ± 3.3 kg/m3, a mass density (313.15 K, 37770 kPa) of 1488.4 ± 3.5 kg/m3 and a mass density (313.15 K, 44170 kPa) of 1492.56 ± 3.7 kg/m3. The mass density (313.15 K, 50750 kPa) was 1496.83 ± 3.9 kg/m3, the mass density (313.15 K, 59590 kPa) was 1502.49 ± 4.1 kg/m3 and the mass density (318.15 K, 100 kPa) was 1457.05 ± 2.5 kg/m3. It also gave a speed of sound (318.15 K, 500 kPa) of 1192.3 ± 3.1 m/s, a mass density (318.15 K, 1830 kPa) of 1458.31 ± 2.5 kg/m3 and a speed of sound (318.15 K, 3500 kPa) of 1202.9 ± 3.1 m/s. For the same compound, the speed of sound (318.15 K, 7000 kPa) was 1215 ± 3.1 m/s.
